19 compounds from patent publication US20260347364A1, “PYRAZOLO[4,3-F]QUINAZOLINE DERIVATIVES AS MODULATORS OF G12D MUTANT KRAS USEFUL FOR THE TREATMENT OF CANCER” (JAZZ PHARMACEUTICALS IRELAND LTD., priority 2023, published 2026) can be followed below.

SMILES strings stand for the structures.

In one test the target is T1, KRAS G12D (Homo sapiens, UniProt P01116, G12D).
T1 construct: aa1-188 KRAS WT, HRAS WT, NRAS WT, or KRAS containing the G12D
Kind of test: HTRF nucleotide exchange assay, KRAS G12D. The note with it: HTRF nucleotide exchange assay (NEA), class symbols. The test is classed as biochemical. Background: TR-FRET usually uses a lanthanide donor and a delayed reading to cut background.

The next test concerns the target T2, KRAS WT (Homo sapiens, UniProt P01116).
T2 construct: aa1-188 KRAS WT
Kind of test: HTRF nucleotide exchange assay, KRAS WT. The test is classed as biochemical. To be noted: HTRF nucleotide exchange assay (NEA), class symbols.

T2 sequence (P01116 1-188 isoform P01116-2): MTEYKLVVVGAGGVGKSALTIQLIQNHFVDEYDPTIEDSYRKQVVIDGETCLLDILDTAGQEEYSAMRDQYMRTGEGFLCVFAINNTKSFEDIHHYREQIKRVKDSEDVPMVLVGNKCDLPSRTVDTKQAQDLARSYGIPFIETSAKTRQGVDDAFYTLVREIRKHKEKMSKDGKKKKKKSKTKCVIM
T1 sequence (P01116 1-188 isoform P01116-2 G12D): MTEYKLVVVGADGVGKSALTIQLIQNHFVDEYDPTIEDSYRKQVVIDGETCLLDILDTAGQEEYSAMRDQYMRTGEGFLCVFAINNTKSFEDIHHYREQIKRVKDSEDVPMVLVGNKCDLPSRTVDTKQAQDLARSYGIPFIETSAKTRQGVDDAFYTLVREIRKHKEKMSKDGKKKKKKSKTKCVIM

Broadly, the IC50 is the concentration at which inhibition is half-maximal. As to `CCc1c(F)ccc2cc(O)cc(-c3cc4nc(OC[C@@]56CCCN5C[C@H](F)C6)nc(N5CCOC6(COC6)C5)c4c4cn(C)nc34)c12` [Example 199, 4-[9-(2,5-dioxa-8-azaspiro[3.5]nonan-8-yl)-2-methyl-7-[[(2R,8S)-2-fluoro-1,2,3,5,6,7-hexahydropyrrolizin-8-yl]methoxy]pyrazolo[4,3-f]quinazolin-4-yl]-5-ethyl-6-fluoro-naphthalen-2-ol], the IC50 against KRAS G12D and at KRAS WT was 10 to 100 nM throughout.
Regarding `CCc1c(F)ccc2cc(O)cc(-c3cc4nc(OC[C@@]56CCCN5C[C@H](F)C6)nc(N5CCCC6(CCC(O)C6)C5)c4c4cn(C)nc34)c12` (stereo partly drawn) [Example 200, 7-[4-(8-ethyl-7-fluoro-3-hydroxy-1-naphthyl)-2-methyl-7-[[(2R,8S)-2-fluoro-1,2,3,5,6,7-hexahydropyrrolizin-8-yl]methoxy]pyrazolo[4,3-f]quinazolin-9-yl]-7-azaspiro[4.5]decan-3-ol], the 50% inhibitory concentration (IC50) on KRAS G12D and at KRAS WT was 100 to 10000 nM in each case.
As for `CCc1c(F)ccc2cc(O)cc(-c3cc4nc(OC[C@@]56CCCN5C[C@H](F)C6)nc(N5CCCC6(COC6)C5)c4c4cn(C)nc34)c12` [Example 201, 5-ethyl-6-fluoro-4-[2-methyl-9-(2-oxa-8-azaspiro[3.5]nonan-8-yl)-7-[[(2R,8S)-2-fluoro-1,2,3,5,6,7-hexahydropyrrolizin-8-yl]methoxy]pyrazolo[4,3-f]quinazolin-4-yl]naphthalen-2-ol], the IC50 was at most 10 nM on KRAS G12D and 100 to 10000 nM on KRAS WT.
Take `CCc1c(F)ccc2cc(O)cc(-c3c(F)c4nc(OCC5(CN6CCCC6)CC5)nc(N5CCC[C@@](C)(O)C5)c4c4cn(C)nc34)c12` [Example 202, (3R)-1-[4-(8-ethyl-7-fluoro-3-hydroxy-1-naphthyl)-5-fluoro-2-methyl-7-[[1-(pyrrolidin-1-ylmethyl)cyclopropyl]methoxy]pyrazolo[4,3-f]quinazolin-9-yl]-3-methyl-piperidin-3-ol]: the half-inhibitory concentration (IC50) at KRAS G12D and at KRAS WT was at most 10 nM each time.
For the compound `CCc1c(F)ccc2cc(O)cc(-c3c(F)c4nc(OCC56CCCN5CCC6)nc(N5CCC[C@@](C)(O)C5)c4c4cn(C)nc34)c12` [Example 203, (3R)-1-[4-(8-ethyl-7-fluoro-3-hydroxy-1-naphthyl)-5-fluoro-7-(1,2,3,5,6,7-hexahydropyrrolizin-8-ylmethoxy)-2-methyl-pyrazolo[4,3-f]quinazolin-9-yl]-3-methyl-piperidin-3-ol], the IC50 against KRAS G12D and at KRAS WT was at most 10 nM each time.
For the compound `CCc1c(F)ccc2cc(O)cc(-c3c(C)c4nc(OCC5(CN(C)C)CC5)nc(N5CCC[C@@](C)(O)C5)c4c4cn(C)nc34)c12` [Example 204, (3R)-1-[7-[[1-[(dimethylamino)methyl]cyclopropyl]methoxy]-4-(8-ethyl-7-fluoro-3-hydroxy-1-naphthyl)-2,5-dimethyl-pyrazolo[4,3-f]quinazolin-9-yl]-3-methyl-piperidin-3-ol], the IC50 against KRAS G12D and on KRAS WT was at most 10 nM each time.
Turning to `CCc1c(F)ccc2cc(O)cc(-c3c(C)c4nc(OCC56CCCN5CCC6)nc(N5CCC[C@@](C)(O)C5)c4c4cn(C)nc34)c12` [Example 205, (3R)-1-[4-(8-ethyl-7-fluoro-3-hydroxy-1-naphthyl)-7-(1,2,3,5,6,7-hexahydropyrrolizin-8-ylmethoxy)-2,5-dimethyl-pyrazolo[4,3-f]quinazolin-9-yl]-3-methyl-piperidin-3-ol], the IC50 against KRAS G12D and against KRAS WT was at most 10 nM throughout.
In the case of `CCc1c(F)ccc2cc(O)cc(-c3c(F)c4nc(OCC5(CF)COC5)nc(N5CCCn6nc(C(=O)N(C)C)cc6C5)c4c4cn(C)nc34)c12` [Example 206, 5-[4-(8-ethyl-7-fluoro-3-hydroxy-1-naphthyl)-5-fluoro-7-[[3-(fluoromethyl)oxetan-3-yl]methoxy]-2-methyl-pyrazolo[4,3-f]quinazolin-9-yl]-N,N-dimethyl-4,6,7,8-tetrahydropyrazolo[1,5-a][1,4]diazepine-2-carboxamide], the IC50 on KRAS G12D was at most 10 nM; at KRAS WT it was 10 to 100 nM.
As to `CCc1c(F)ccc2cc(O)cc(-c3c(F)c4nc(OCC5(C#N)CCOC5)nc(N5CCCn6nc(C(=O)N(C)C)cc6C5)c4c4cn(C)nc34)c12` (centres unmarked) [Example 207, 5-[7-[(3-cyanotetrahydrofuran-3-yl)methoxy]-4-(8-ethyl-7-fluoro-3-hydroxy-1-naphthyl)-5-fluoro-2-methyl-pyrazolo[4,3-f]quinazolin-9-yl]-N,N-dimethyl-4,6,7,8-tetrahydropyrazolo[1,5-a][1,4]diazepine-2-carboxamide], the results for the IC50 against KRAS G12D and against KRAS WT were at most 10 nM and 10 to 100 nM, respectively.
For `CCc1c(F)ccc2cc(O)cc(-c3c(F)c4nc(OCC56COC(COC)(C5)C6)nc(N5CCCn6nc(C(=O)N(C)C)cc6C5)c4c4cn(C)nc34)c12` [Example 208, 5-[4-(8-ethyl-7-fluoro-3-hydroxy-1-naphthyl)-5-fluoro-7-[[1-(methoxymethyl)-2-oxabicyclo[2.1.1]hexan-4-yl]methoxy]-2-methyl-pyrazolo[4,3-f]quinazolin-9-yl]-N,N-dimethyl-4,6,7,8-tetrahydropyrazolo[1,5-a][1,4]diazepine-2-carboxamide], the figures for the IC50 on KRAS G12D and at KRAS WT were at most 10 nM and 10 to 100 nM, respectively.
The matching figures for `CCc1c(F)ccc2cc(O)cc(-c3c(C)c4nc(OC[C@@]56CCCN5C[C@H](F)C6)nc(N5CCCn6nc(C(=O)N7CCOCC7)cc6C5)c4c4cn(C)nc34)c12` [Example 209, [5-[4-(8-ethyl-7-fluoro-3-hydroxy-1-naphthyl)-7-[[(2R,8S)-2-fluoro-1,2,3,5,6,7-hexahydropyrrolizin-8-yl]methoxy]-2,5-dimethyl-pyrazolo[4,3-f]quinazolin-9-yl]-4,6,7,8-tetrahydropyrazolo[1,5-a][1,4]diazepin-2-yl]-morpholino-methanone]: at most 10 nM and at most 10 nM.
Regarding `CCc1c(F)ccc2cc(O)cc(-c3cc4nc(OC[C@@]56CCCN5C[C@H](F)C6)nc(N5CC6CCC(C5)C6C#N)c4c4cn(C)nc34)c12` (stereo partly drawn) [Example 210, 3-[4-(8-ethyl-7-fluoro-3-hydroxy-1-naphthyl)-7-[[(2R,8S)-2-fluoro-1,2,3,5,6,7-hexahydropyrrolizin-8-yl]methoxy]-2-methyl-pyrazolo[4,3-f]quinazolin-9-yl]-3-azabicyclo[3.2.1]octane-8-carbonitrile], the IC50 at KRAS G12D and against KRAS WT was 10 to 100 nM in each case.
Take `CCc1c(F)ccc2cc(O)cc(-c3c(F)c4nc(OCC5(CN(C)CC)CC5)nc(N5CCOCC(C)(O)C5)c4c4cn(C)nc34)c12` (centres unmarked) [Example 212, 4-[4-(8-ethyl-7-fluoro-3-hydroxy-1-naphthyl)-7-[[1-[[ethyl(methyl)amino]methyl]cyclopropyl]methoxy]-5-fluoro-2-methyl-pyrazolo[4,3-f]quinazolin-9-yl]-6-methyl-1,4-oxazepan-6-ol]: the IC50 at KRAS G12D and against KRAS WT was at most 10 nM throughout.
Regarding `CCc1c(F)ccc2cc(O)cc(-c3c(F)c4nc(OCC5(CN6CCC(O)CC6)CC5)nc(N5CCOCC(C)(O)C5)c4c4cn(C)nc34)c12` (centres unmarked) [Example 213, 4-[4-(8-ethyl-7-fluoro-3-hydroxy-1-naphthyl)-5-fluoro-7-[[1-[(4-hydroxy-1-piperidyl)methyl]cyclopropyl]methoxy]-2-methyl-pyrazolo[4,3-f]quinazolin-9-yl]-6-methyl-1,4-oxazepan-6-ol], the IC50 against KRAS G12D and on KRAS WT was at most 10 nM throughout.
For the compound `CCc1c(F)ccc2cc(O)cc(-c3c(F)c4nc(OCC5(CN6CCC6)CC5)nc(N5CCOCC(C)(O)C5)c4c4cn(C)nc34)c12` (centres unmarked) [Example 214, 4-[7-[[1-(azetidin-1-ylmethyl)cyclopropyl]methoxy]-4-(8-ethyl-7-fluoro-3-hydroxy-1-naphthyl)-5-fluoro-2-methyl-pyrazolo[4,3-f]quinazolin-9-yl]-6-methyl-1,4-oxazepan-6-ol], the IC50 on KRAS G12D and against KRAS WT was at most 10 nM throughout.
As to `CCc1c(F)ccc2cc(O)cc(-c3c(C)c4nc(OCC5(CF)COC5)nc(N5CCCn6nc(C(=O)N(C)C)cc6C5)c4c4cn(C)nc34)c12` [Example 215], the results for the IC50 against KRAS G12D and against KRAS WT were 10 to 100 nM and 100 to 10000 nM, respectively.
With `CCc1c(F)ccc2cc(O)cc(-c3c(C)c4nc(OC[C@@]56CCCN5C[C@H](F)C6)nc(N5CC6CCC5CN6)c4c4cn(C)nc34)c12` (stereo partly drawn) [Example 216, 4-[9-(2,5-diazabicyclo[2.2.2]octan-2-yl)-2,5-dimethyl-7-[[(2R,8S)-2-fluoro-1,2,3,5,6,7-hexahydropyrrolizin-8-yl]methoxy]pyrazolo[4,3-f]quinazolin-4-yl]-5-ethyl-6-fluoro-naphthalen-2-ol], the IC50 against KRAS G12D and against KRAS WT was at most 10 nM each time.
For the compound `CCc1c(F)ccc2cc(O)cc(-c3c(F)c4nc(OCC5(CN6CC7CCC(C6)O7)CC5)nc(N5CCOCC(C)(O)C5)c4c4cn(C)nc34)c12` (centres unmarked) [Example 217, 4-[4-(8-ethyl-7-fluoro-3-hydroxy-1-naphthyl)-5-fluoro-2-methyl-7-[[1-(8-oxa-3-azabicyclo[3.2.1]octan-3-ylmethyl)cyclopropyl]methoxy]pyrazolo[4,3-f]quinazolin-9-yl]-6-methyl-1,4-oxazepan-6-ol], the half-maximal inhibitory concentration (IC50) against KRAS G12D and at KRAS WT was at most 10 nM each time.
Consider `CCc1c(F)ccc2cc(O)cc(-c3c(F)c4nc(OCC5(CN6CCC(C(F)(F)F)CC6)CC5)nc(N5CCOCC(C)(O)C5)c4c4cn(C)nc34)c12` (centres unmarked) [Example 218, 4-[4-(8-ethyl-7-fluoro-3-hydroxy-1-naphthyl)-5-fluoro-2-methyl-7-[[1-[[4-(trifluoromethyl)-1-piperidyl]methyl]cyclopropyl]methoxy]pyrazolo[4,3-f]quinazolin-9-yl]-6-methyl-1,4-oxazepan-6-ol], for which the IC50 at KRAS G12D and against KRAS WT was at most 10 nM throughout.
